Results on eleven molecules are retold here after patent US20060014813A1, “Pharmaceutical compounds that regenerate in vivo” (priority 2003, published 2006).

Bounds are passed on as bounds.

One data set has as its system COX-2. Particulars: animal models of Parkinson's disease; cited from earlier work.
The target in another data set is T1, msrA (Bos taurus, UniProt P54149).
T1 construct: made in house; host or cells: E. coli
T1 sequence (P54149 21-233): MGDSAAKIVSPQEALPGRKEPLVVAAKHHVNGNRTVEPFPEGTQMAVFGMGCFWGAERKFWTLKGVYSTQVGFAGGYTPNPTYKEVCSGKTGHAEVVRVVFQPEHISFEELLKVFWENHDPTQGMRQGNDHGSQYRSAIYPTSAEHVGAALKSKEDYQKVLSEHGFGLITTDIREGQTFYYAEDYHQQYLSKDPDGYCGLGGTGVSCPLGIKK
The data set can be described thus: Calorimetric test of whether a compound is turned over by msrA (protein injected into compound solution). It is filed as biochemical, bovine. Particulars: compound at 500 μM or as high as possible, three injections of msrA, heat evolved. As for the experimental part:
Compounds 105-108 in the list were only soluble below 1 mM. However, an assessment was made as to whether those compounds were substrates for msrA (i.e., whether they are turned over by the enzyme), by employing the following experimental protocol. The compounds were dissolved in the usual buffer [50 mM Tris, 50 mM KCl, 5 mM TCEP, pH 7.50] at a concentration of 500 μM, or as high as possible. 1.8 ml of this solution was loaded into the calorimetric cell, while the syringe was filled with a […] solution of msrA in the same buffer. After the stirring and equilibration period has elapsed, three injections of protein were made, spaced out over 20 minute intervals. If the compound is a substrate for msrA, a large amount of heat will be evolved after the first injection (several millicalories generated over ˜10 minutes), while the other two injections of protein will register only small heats (tens of microcalories), before the signal quickly returns to the baseline. These smaller heats represent the heat of dilution of the protein into the solution in the calorimetric cell.
Once the substrate has been fully reacted and the heat output has returned to the baseline, further injections of protein show only the heat of dilution of the enzyme.

Another data set deals with T2, bovine msrA (Bos taurus, UniProt P54149).
T2 construct: made in house; host or cells: E. coli
T2 sequence (P54149 21-233): T1 sequence (P54149 21-233)
The data set is described as follows: Methionine sulfoxide reductase assay by isothermal titration calorimetry (kcat, KM). It is filed as biochemical. Conditions: substrate for msrA; 300 nM enzyme, pH 7.50, 37° C. As for the experimental part:
(§1) The compounds of the present invention may be assayed for activity both in vitro and in vivo. For example, in order to assay whether a compound of this invention will serve as a regenerable Msr substrate, the compound is titrated in several increments into a solution of the enzyme msrA (pH 7.5, 37 °C, reducing buffer) contained in a microcalorimeter. The heat (ΔH) from the reaction is measured at each step. These power output levels are converted into rates of reaction according to Todd & Gomez, Anal. Biochem., 296, pp. 1-9 (2001), and the resulting rates are plotted versus substrate concentration. From this plot, the kcat and KM are determined according to standard Michaelis-Menton enzyme kinetics.
An assay using isothermal titration calorimetry was developed. […] The quicker such compounds are converted back to their reduced form by MSR, the more equivalents of ROS they will eliminate before being cleared from the body. The assay was used to determine the enzymatic parameters (kcat and KM) of the compounds of this invention interacting with msrA under standard conditions. Chemical modifications that increase kcat, a measure of how quickly a compound was turned over by the enzyme, and/or decrease its KM, a measure of how readily a compound bound to the enzyme, represent improvements in that compound's ability to be efficiently processed by msrA.
In order to run the assay bovine msrA was overexpressed in E. coli and purified according to the method described in Lowther et al., Proc. Natl. Acad. Sci. USA, 97, pp. 6463-6468 (2000), the disclosure of which is herein incorporated by reference. A 300 nM solution of the enzyme was prepared in 50 mM Tris, 50 mM KCl, 4 mM tris(carboxyethyl)phosphine (TCEP), pH 7.50. A 25 mM solution of the compound to be tested was prepared in the identical buffer. A 1.8 ml aliquot of the msrA enzyme solution was loaded into the cell of a VP-ITC instrument from Microcal Corp. (Northampton, Mass.). The test compound solution was loaded into the syringe, and the entire system was allowed to come to thermal equilibrium at 37° C. while stirring at a rate of 300 rpm. Once equilibrium was established, a series of small injections ([…]) of the compound into the protein solution were made, and the increasing power output of the enzyme was measured after each injection, relative to the instrument baseline. These power output levels were converted into rates of reaction, according to Todd & Gomez, Anal. Biochem., 296, pp. 1-9 (2001), the disclosure of which is herein incorporated, and the resulting rates were plotted against substrate concentration. From this plot, the kcat and KM were determined with a computer fitting routine according to standard Michaelis-Menton enzyme kinetics.
To ensure that the compounds would be substrates for MSR, we determined the substrate specificities of MSR by choosing test compounds that contained a sulfoxide moiety and testing those compounds for MSR activity in the enzyme assay described below. Table 1 sets forth compounds that were tested for their ability to serve as MSR substrates using the isothermal titration calorimetry assay described above: […]

Data set [1] in a line: Solubility of test compounds in assay buffer. The format is physicochemical. Particulars: Tris assay buffer, pH 7.5, aqueous buffer; 50 mM Tris, 50 mM KCl, 5 mM TCEP, pH 7.50.
The subject of the next data set is reactive oxygen species. Particulars: systemic injection; cited from earlier work.
Substrate in data set [2]: CC1=C(CC(=O)O)c2cc(F)ccc2/C1=C\c1ccc([S+](C)[O-])cc1
The data set is described as follows: purified protein, by the assay type. Conditions: other: substrate for msrA, 300 nM enzyme, pH 7.50, 37° C, pH 7.5.

Substrate in data set [3]: C[S+]([O-])CC[C@H](N)C(=O)O
The data set can be described thus: purified protein, by the assay type. Conditions: other: substrate for msrA, 300 nM enzyme, pH 7.50, 37° C, pH 7.5.

Substrate in data set [4]: CC1=C(CC(=O)NC(CC[S+](C)[O-])C(=O)O)c2cc(F)ccc2/C1=C\c1ccc([S+](C)[O-])cc1
The data set is described as follows: purified protein, by the assay type. It is filed as biochemical, bovine. Particulars: other: substrate for msrA, 300 nM enzyme, pH 7.50, 37° C, pH 7.5. The procedure:
as §1
An assay using isothermal titration calorimetry was developed. […] Chemical modifications that increase kcat, a measure of how quickly a compound was turned over by the enzyme, and/or decrease its KM, a measure of how readily a compound bound to the enzyme, represent improvements in that compound's ability to be efficiently processed by msrA. […]
To ensure that the compounds would be substrates for MSR, we determined the substrate specificities of MSR by choosing test compounds that contained a sulfoxide moiety and testing those compounds for MSR activity in the enzyme assay described below. […]

As to `CS(=O)(=O)c1ccc(C2=C(c3ccccc3)C(=O)OC2)cc1` [Vioxx], the “partial recovery of dopamine production” value in the data set on COX-2 is approximately 20%.

Take `C[S+]([O-])CC[C@H](N)C(=O)O` (some centres unmarked) [compound 100, methionine sulfoxide]: the “substrate for msrA (turned over by the enzyme)” value at msrA is given as “produces the large heat output”. Regarding `C[S+]([O-])c1ccccc1` (centres unmarked) [compound 102, methyphenylsulfoxide], on bovine msrA, the Kcat came to 0.46 s⁻¹ and the Km (usually the substrate concentration at which the rate is half of its maximum) came to 750 µM.

In the case of `C[S+](C)[O-]` [compound 103, DMSO], on bovine msrA, the Kcat was found to be 0.064 s⁻¹ and the Km worked out at 314 µM. For `C[S+]([O-])c1ccc(-c2cc(C(F)(F)F)nn2-c2ccc(S(N)(=O)=O)cc2)cc1` (centres unmarked) [compound 105], the solubility (in general, how much of the substance goes into solution per volume) in data set [1] is less than 1000 µM. On the same count and under the same terms, for `C[S+]([O-])c1ccc(CC(=O)O)cc1` (centres unmarked) [compound 106] the value was less than 1000 µM; for `CSc1ccc(/C=C2/C(C)=C(CC(=O)NC(CC[S+](C)[O-])C(=O)O)c3cc(F)ccc32)cc1` (centres unmarked) [compound 107], less than 1000 µM; for `C[S+]([O-])c1ccc(-c2cc(C(=O)O)nn2-c2ccc(S(N)(=O)=O)cc2)cc1` (centres unmarked) [compound 108], less than 1000 µM. For the molecule `CS(=O)(=O)CC[C@H](N)C(=O)O` [compound 109, methionine sulfone], the Kcat at bovine msrA was 0 s⁻¹. The figures for the “substrate for msrA (turned over by the enzyme)” value on msrA and at msrA (listed as methionine sulfone) were “does not get turned over by msrA” and “not a substrate for msrA”, respectively. Take `CC(C)(C)[N+]([O-])=Cc1ccccc1` [phenyl-N-tert-butylnitrone (PBN), phenyl-N-tert-butylnitrone]: the “relief of SNL-induced mechanical allodynia” value with reactive oxygen species is reported as “relieves SNL-induced mechanical allodynia in a dose-dependent manner”.

B1: bovine msrA (Bos taurus) (protein)
chain: T1 sequence (P54149 21-233)
notes: made in house; host or cells: E. coli
B1: the Km is 112 µM in data set [2], 504 µM in data set [3] and 7.6 µM in data set [4]. The values for the kcat in data set [2], in data set [3] and in data set [4] were 0.56 s⁻¹, 0.27 s⁻¹ and 0.27 s⁻¹, respectively.
